Experimental data as given in patent US20050215551A1, “1-[2H-1-benzopyran-2-one-8-yl]- piperazine derivatives for the treatment of movement disorders” (SOLVAY PHARMACEUTICALS B.V., priority 2004, published 2005).

Assays:
β1-adrenergic = β1-adrenergic (Homo sapiens, UniProt P08588); assay: Receptor binding β1-adrenergic; conditions: radioligand [3H]-CGP 12177, read-out: Ki(nM) Compound 1
Procedure: (§1) Receptor binding data were obtained by CEREP (128, rue Danton, 92500 Rueil-Malmaison, France) or at Solvay Pharmaceuticals B.V., using well documented standard procedures. Affinity for 5-HT1A receptors for instance, was determined by testing the ability of the compounds of the invention to displace [^3H]-2-(di-n-propylamino)-8-hydroxytetralin ([^3H]-8-OH-DPAT) from its specific binding sites in rat frontal cortex homogenates. This test is based on the method described by Gozlan et al. (Nature, 305, (1983), pages 140-142).
(§2) The binding data collected in the table below were either obtained by CEREP (128, rue Danton, 92500 Rueil-Malmaison, France) or at Solvay Pharmaceuticals B.V., using well documented standard procedures.

Muscarine-M1 = Muscarine-M1 (Homo sapiens, UniProt P11229); assay: Receptor binding Muscarine-M1; conditions: radioligand [3H]-pirenzepine, read-out: Ki(nM) Compound 1
Chain of Muscarine-M1 (P11229 whole entry): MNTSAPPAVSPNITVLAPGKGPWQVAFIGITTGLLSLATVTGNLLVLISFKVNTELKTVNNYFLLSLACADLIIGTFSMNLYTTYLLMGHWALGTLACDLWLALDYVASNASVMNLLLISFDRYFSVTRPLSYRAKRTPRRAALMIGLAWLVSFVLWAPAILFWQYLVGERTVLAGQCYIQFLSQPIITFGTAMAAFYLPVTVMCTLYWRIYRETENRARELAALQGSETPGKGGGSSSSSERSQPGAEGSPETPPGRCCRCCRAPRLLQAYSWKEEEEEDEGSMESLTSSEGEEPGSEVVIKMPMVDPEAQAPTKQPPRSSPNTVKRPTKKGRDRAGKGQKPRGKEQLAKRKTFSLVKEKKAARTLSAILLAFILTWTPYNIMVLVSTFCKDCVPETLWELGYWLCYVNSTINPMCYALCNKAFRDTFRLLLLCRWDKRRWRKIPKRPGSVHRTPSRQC
Procedure: as §1, §2

sigma-SG2 = sigma-SG2 (Rattus norvegicus, UniProt Q5U3Y7); assay: Receptor binding sigma-SG2; conditions: radioligand [3H]-DTG, read-out: Ki(nM) Compound 1
Chain of sigma-SG2 (Q5U3Y7 whole entry): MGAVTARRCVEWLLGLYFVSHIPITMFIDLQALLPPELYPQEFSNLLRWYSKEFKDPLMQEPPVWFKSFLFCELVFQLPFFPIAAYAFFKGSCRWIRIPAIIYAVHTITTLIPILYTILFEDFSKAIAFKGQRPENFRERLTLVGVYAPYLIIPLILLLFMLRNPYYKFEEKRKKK
Procedure: as §1, §2

PACAP = PACAP (Rattus norvegicus, UniProt P32215); assay: Receptor binding PACAP; conditions: radioligand [125I]-PACAP 1-27, read-out: Ki(nM) Compound 1
Chain of PACAP (P32215 20-523): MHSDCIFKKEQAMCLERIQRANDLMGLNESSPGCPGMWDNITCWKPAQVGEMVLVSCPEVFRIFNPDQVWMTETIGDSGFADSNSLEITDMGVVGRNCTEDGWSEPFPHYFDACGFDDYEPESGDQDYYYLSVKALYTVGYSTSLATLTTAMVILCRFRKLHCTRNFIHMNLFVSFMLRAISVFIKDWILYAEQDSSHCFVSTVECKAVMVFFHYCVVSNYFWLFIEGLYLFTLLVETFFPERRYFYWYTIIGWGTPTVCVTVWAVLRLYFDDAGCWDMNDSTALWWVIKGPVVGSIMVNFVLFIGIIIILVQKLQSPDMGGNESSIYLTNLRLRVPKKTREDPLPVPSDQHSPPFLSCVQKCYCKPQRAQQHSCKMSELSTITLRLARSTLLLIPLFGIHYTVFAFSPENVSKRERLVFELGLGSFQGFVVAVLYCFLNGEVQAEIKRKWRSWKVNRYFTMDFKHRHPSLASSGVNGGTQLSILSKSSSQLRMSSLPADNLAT
Procedure: as §1, §2

Chain of β1-adrenergic (P08588 whole entry): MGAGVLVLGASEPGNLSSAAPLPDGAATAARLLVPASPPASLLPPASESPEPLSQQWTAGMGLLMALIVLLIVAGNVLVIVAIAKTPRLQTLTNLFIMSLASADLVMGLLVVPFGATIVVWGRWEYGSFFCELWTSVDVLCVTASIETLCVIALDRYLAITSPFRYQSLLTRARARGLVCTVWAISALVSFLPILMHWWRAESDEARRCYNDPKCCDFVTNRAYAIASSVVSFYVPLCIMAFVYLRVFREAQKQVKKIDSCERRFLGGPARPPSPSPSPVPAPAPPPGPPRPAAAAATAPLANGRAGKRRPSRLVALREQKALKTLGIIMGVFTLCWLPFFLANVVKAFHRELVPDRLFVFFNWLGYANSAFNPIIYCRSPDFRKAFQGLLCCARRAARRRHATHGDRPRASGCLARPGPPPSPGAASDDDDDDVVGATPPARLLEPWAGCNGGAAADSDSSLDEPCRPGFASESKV

`Nc1cc2cccc(N3CCNCC3)c2oc1=O` [Compound 1, 3-amino-8-(1-piperazinyl)-2H-1-benzopyran-2-one] showed a Ki (β1-adrenergic) of 50 nM, a Ki (Muscarine-M1) greater than 1000 nM and a Ki (sigma-SG2) greater than 1000 nM. For the same compound, the Ki (PACAP) was greater than 1000 nM.
